Results reported in US10584283B2, “Preservative for technical products” (Schülke & Mayr GmbH, priority 2015, dated 2020).

Experiment: Storage stability in polyethylene bottles, Experiment 6 (other alkalizing agents)
Format: physicochemical
Experimental: It was also investigated whether the stabilization achieved according to the invention with the particularly preferred agent MIPA is also achieved with other alkalizing agents.
Samples of the solutions were stored in bottles made of polyethylene at −5° C., 25° C. and 40° C. in order to investigate the stability.

- Storage stability / compatibility (conclusion in words): incompatible with TTT
Compound: CCCCCCCCCCCCN(CCCN)CCCN [N,N-bis(3-aminopropyl)-dodecylamine]
